DBAASP
Converted amounts (≈) assume the structure as drawn. Values belong to the compound of their own block, whether it stands above or below them.

Experiments:
Test in all cases: ≥ marks a high value that may be exact or a test limit, other limits are often not marked, values filed in µg/mL are converted to µM
Escherichia coli BW25113 = system: Escherichia coli BW25113
Escherichia coli JW0013 = system: Escherichia coli JW0013
[1] = system: Salmonella enterica subsp. enterica serovar Enteritidis MH91989
Escherichia coli JJ2489 = system: Escherichia coli JJ2489
[2] = system: Escherichia coli JW0368 ΔsbmA
[3] = system: Salmonella typhimurium SL1344
Escherichia coli J2210 = system: Escherichia coli J2210
[4] = system: Escherichia coli JW2778 ΔygdD
Escherichia coli MC1041 = system: Escherichia coli MC1041
[5] = system: Staphylococcus aureus ATCC 29213
[6] = system: Bacillus subtilis ATCC 6633
Micrococcus luteus A270 = system: Micrococcus luteus A270
[7] = system: Candida tropicalis IOC 4560
[8] = system: Serratia marcescens ATCC 4112
Escherichia coli SBS 363 = system: Escherichia coli SBS 363
[9] = system: Bacillus megaterium ATCC 10778
Candida albicans MDM8 = system: Candida albicans MDM8
[10] = system: Pseudomonas aeruginosa NCIB 10421
[11] = system: Enterobacter cloacae beta-12
[12] = system: Pseudomonas aeruginosa ATCC 10145
[13] = system: Staphylococcus aureus ATCC 33591
[14] = system: Escherichia coli ATCC 2592
[15] = system: Cryptococcus neoformans ATCC 32045
[16] = system: Candida albicans ATCC 10231
[17] = system: Escherichia coli ATCC 25922
[18] = system: Pseudomonas aeruginosa CICC 11421
[19] = system: Pseudomonas aeruginosa CICC 11411
[20] = system: Pseudomonas aeruginosa CICC 11431
[21] = system: Pseudomonas aeruginosa CICC 10419
[22] = system: Pseudomonas aeruginosa CICC 21625
[23] = system: Pseudomonas aeruginosa 21328
[24] = system: Pseudomonas aeruginosa 25349
[25] = system: Pseudomonas aeruginosa ATCC 27853
[26] = system: Pseudomonas aeruginosa CICC 21630
[27] = system: Bacillus subtilis ATCC 6051
[28] = system: Bacillus amyloliquefaciens ATCC 23842
[29] = system: Bacillus licheniformis ATCC 14580
[30] = system: Bacillus cereus ATCC 14579
[31] = system: Salmonella enterica ATCC H9812
[32] = system: Enterococcus faecalis 1F-1
[33] = system: Proteus mirabilis ATCC 35659
[34] = system: Pseudomonas aeruginosa PAO1
[35] = system: Enterococcus faecium 5F-10

Compound: C[C@H](NC(=O)[C@H](Cc1ccccc1)NC(=O)[C@H](CCCCN)NC(=O)[C@H](CCCCN)NC(=O)[C@H](C)NC(=O)[C@H](Cc1ccccc1)NC(=O)[C@H](CCCCN)NC(=O)[C@H](CCCCN)NC(=O)[C@H](C)NC(=O)[C@H](Cc1ccccc1)NC(=O)[C@@H](N)CCCCN)C(=O)N[C@@H](CCCCN)C(=O)O [KFAKKFAKKFAK]
- MIC [12]: ≥ 347 µM
- MIC [13]: ≥ 347 µM
- MIC [14]: ≥ 173 µM
- MIC [15]: ≥ 123 µM
- MIC [16]: 260 µM (≈ 374 µg/mL)

Compound: NCCCC[C@H](NC(=O)[C@H](Cc1ccccc1)NC(=O)[C@H](Cc1ccccc1)NC(=O)[C@H](CCCCN)NC(=O)[C@H](CCCCN)NC(=O)[C@H](Cc1ccccc1)NC(=O)[C@H](Cc1ccccc1)NC(=O)[C@H](CCCCN)NC(=O)[C@H](CCCCN)NC(=O)[C@H](Cc1ccccc1)NC(=O)[C@H](Cc1ccccc1)NC(=O)[C@H](CCCCN)NC(=O)[C@H](CCCCN)NC(=O)[C@H](Cc1ccccc1)NC(=O)[C@H](Cc1ccccc1)NC(=O)[C@H](CCCCN)NC(=O)[C@H](CCCCN)NC(=O)[C@H](Cc1ccccc1)NC(=O)[C@H](Cc1ccccc1)NC(=O)[C@H](CCCCN)NC(=O)[C@H](CCCCN)NC(=O)[C@H](Cc1ccccc1)NC(=O)[C@H](Cc1ccccc1)NC(=O)[C@H](CCCCN)NC(=O)[C@H](CCCCN)NC(=O)[C@H](Cc1ccccc1)NC(=O)[C@H](Cc1ccccc1)NC(=O)[C@@H](N)CCCCN)C(=O)O [KFFKKFFKKFFKKFFKKFFKKFFKKFFK]
- MIC [12]: ≥ 32.3 µM
- MIC [13]: ≥ 64.6 µM
- MIC [14]: ≥ 32.3 µM
- MIC [15]: 22.7 µM (≈ 88 µg/mL)
- MIC [16]: 91.3 µM (≈ 354 µg/mL)

Compound: CC(C)C[C@H](NC(=O)[C@H](CCCN=C(N)N)NC(=O)[C@H](CCCN=C(N)N)NC(=O)[C@H](CC(C)C)NC(=O)[C@H](CCCN=C(N)N)NC(=O)[C@H](CCCN=C(N)N)NC(=O)[C@H](CCCN=C(N)N)NC(=O)[C@H](Cc1c[nH]c2ccccc12)NC(=O)[C@H](Cc1c[nH]c2ccccc12)NC(=O)[C@H](Cc1c[nH]c2ccccc12)NC(=O)[C@H](CCCN=C(N)N)NC(=O)[C@H](CCCN=C(N)N)NC(=O)[C@H](CCCN=C(N)N)NC(=O)[C@H](CC(C)C)NC(=O)[C@H](CCCN=C(N)N)NC(=O)[C@H](CCCN=C(N)N)NC(=O)[C@@H](N)CC(C)C)C(N)=O [LRRLRRRWWWRRRLRRL]
- MIC [17]: 1.54 µM (≈ 4 µg/mL)
- MIC [18]: 3.09 µM (≈ 8 µg/mL)
- MIC [5]: 3.09 µM (≈ 8 µg/mL)
- MIC [19]: 1.54 µM (≈ 4 µg/mL)
- MIC [20]: 1.54 µM (≈ 4 µg/mL)
- MIC [21]: 3.09 µM (≈ 8 µg/mL)
- MIC [22]: 3.09 µM (≈ 8 µg/mL)
- MIC [23]: 1.54 µM (≈ 4 µg/mL)
- MIC [24]: 1.54 µM (≈ 4 µg/mL)
- MIC [26]: 1.54 µM (≈ 4 µg/mL)

Compound: CC(C)C[C@H](NC(=O)[C@H](CCC(=O)O)NC(=O)[C@H](CC(=O)O)NC(=O)[C@@H](NC(=O)[C@H](CCCN=C(N)N)NC(=O)[C@H](CO)NC(=O)[C@@H](N)CC(C)C)C(C)C)C(=O)O [LSRVDEL]
- MIC [17]: > 154 µM
- MIC [5]: > 154 µM
- MIC [27]: ≥ 154 µM
- MIC [28]: ≥ 154 µM
- MIC [29]: ≥ 154 µM
- MIC [30]: ≥ 154 µM
- MIC [31]: ≥ 154 µM
- MIC [32]: ≥ 154 µM
- MIC [33]: ≥ 154 µM
- MIC [34]: > 154 µM
- MIC [35]: ≥ 154 µM

Compound: CC(C)C[C@H](N)C(=O)N[C@@H](CO)C(=O)N[C@@H](CCCN=C(N)N)C(=O)N[C@H](C(=O)N[C@@H](CC(=O)O)C(=O)O)C(C)C [LSRVD]
- MIC [17]: 109 µM (≈ 64 µg/mL)
- MIC [5]: > 217 µM
- MIC [27]: ≥ 217 µM
- MIC [28]: ≥ 217 µM
- MIC [29]: ≥ 217 µM
- MIC [30]: ≥ 217 µM
- MIC [31]: ≥ 109 µM
- MIC [32]: ≥ 217 µM
- MIC [33]: ≥ 217 µM
- MIC [34]: > 217 µM
- MIC [35]: ≥ 217 µM

The next lines start with the values.

- MIC (Escherichia coli BW25113): 0.096 µM (≈ 0.206 µg/mL)
- MIC (Escherichia coli JW0013): 0.096 µM (≈ 0.206 µg/mL)
- MIC [1]: 0.096 µM (≈ 0.206 µg/mL)
- MIC (Escherichia coli JJ2489): 0.133 µM (≈ 0.285 µg/mL)
- MIC [2]: 0.133 µM (≈ 0.285 µg/mL)
- MIC [3]: 0.192 µM (≈ 0.411 µg/mL)
- MIC (Escherichia coli J2210): 0.252 µM (≈ 0.54 µg/mL)
- MIC [4]: 0.192 µM (≈ 0.411 µg/mL)
- MIC (Escherichia coli MC1041): 0.126 µM (≈ 0.27 µg/mL)
Compound: CC(C)C[C@H](NC(=O)[C@H](CCCN=C(N)N)NC(=O)[C@@H]1CCCN1C(=O)[C@H](CCCN=C(N)N)NC(=O)[C@@H]1CCCN1C(=O)[C@@H]1CCCN1C(=O)[C@H](CCCN=C(N)N)NC(=O)[C@@H]1CCCN1C(=O)[C@H](CCC(N)=O)NC(=O)[C@@H]1CCCN1C(=O)[C@H](CCCN=C(N)N)NC(=O)[C@H](Cc1ccc(O)cc1)NC(=O)[C@@H](NC(=O)[C@@H]1CCCN1C(=O)[C@H](CCCCN)NC(=O)[C@H](CC(N)=O)NC(=O)[C@H](CC(N)=O)NC(=O)CN)C(C)C)C(=O)O [GNNKPVYRPQPRPPRPRL]

- MIC [5]: 50 µM (≈ 77.1 µg/mL)
- MIC [6]: 25 µM (≈ 38.6 µg/mL)
- MIC (Micrococcus luteus A270): 12.5 µM (≈ 19.3 µg/mL)
- MIC [7]: 12.5 µM (≈ 19.3 µg/mL)
- MIC [8]: 3.13 µM (≈ 4.83 µg/mL)
- MIC (Escherichia coli SBS 363): ≥ 50 µM
- MIC [9]: 3.13 µM (≈ 4.83 µg/mL)
- MIC (Candida albicans MDM8): ≥ 50 µM
- MIC [10]: ≥ 50 µM
- MIC [11]: ≥ 50 µM
Compound: CC[C@H](C)[C@H](N)C(=O)N[C@@H](CC(C)C)C(=O)NCC(=O)N[C@@H](CCCCN)C(=O)N[C@H](C(=O)N[C@@H](Cc1c[nH]c2ccccc12)C(=O)N[C@@H](CCC(=O)O)C(=O)N1CCC[C@H]1C(=O)N[C@H](C(=O)N[C@@H](CCCCN)C(=O)N[C@@H](CO)C(=O)N[C@@H](CC(C)C)C(=O)N[C@@H](Cc1ccccc1)C(N)=O)[C@@H](C)CC)[C@@H](C)CC [ILGKIWEPIKSLF]

- MIC [17]: 7.21 µM (≈ 16 µg/mL)
- MIC [18]: 14.4 µM (≈ 32 µg/mL)
- MIC [5]: 7.21 µM (≈ 16 µg/mL)
- MIC [19]: 14.4 µM (≈ 32 µg/mL)
- MIC [20]: 7.21 µM (≈ 16 µg/mL)
- MIC [21]: 14.4 µM (≈ 32 µg/mL)
- MIC [22]: 7.21 µM (≈ 16 µg/mL)
- MIC [23]: 14.4 µM (≈ 32 µg/mL)
- MIC [24]: 3.61 µM (≈ 8 µg/mL)
- MIC [25]: 7.21 µM (≈ 16 µg/mL)
- MIC [26]: 7.21 µM (≈ 16 µg/mL)
Compound: CC(C)C[C@H](NC(=O)[C@H](CCCN=C(N)N)NC(=O)[C@H](CCCN=C(N)N)NC(=O)[C@H](CC(C)C)NC(=O)[C@H](CCCN=C(N)N)NC(=O)[C@H](CCCN=C(N)N)NC(=O)[C@H](CCCN=C(N)N)NC(=O)[C@H](Cc1c[nH]c2ccccc12)NC(=O)[C@H](CCCN=C(N)N)NC(=O)[C@H](CCCN=C(N)N)NC(=O)[C@H](CCCN=C(N)N)NC(=O)[C@H](CC(C)C)NC(=O)[C@H](CCCN=C(N)N)NC(=O)[C@H](CCCN=C(N)N)NC(=O)[C@@H](N)CC(C)C)C(N)=O [LRRLRRRWRRRLRRL]
